Test results as given in US5334595A, “Pyrazoloquinolones as anticancer agents” (priority 1992, dated 1994).
Where two headings read alike, the source gives them in different places.

Assays:
[1] = molecular target: T1, human topoisomerase II (Homo sapiens, UniProt P11388); experiment: Mammalian topoisomerase II inhibition assay (topo II covalently attached to DNA, relative to mAMSA); format: biochemical; conditions: read-out: topo II inh. EC50
T1 construct: Topo II was purified from late log phase suspension cultures of HeLa WIS; endogenous in cells; host or cells: HeLa WIS
T1 sequence (P11388 whole entry): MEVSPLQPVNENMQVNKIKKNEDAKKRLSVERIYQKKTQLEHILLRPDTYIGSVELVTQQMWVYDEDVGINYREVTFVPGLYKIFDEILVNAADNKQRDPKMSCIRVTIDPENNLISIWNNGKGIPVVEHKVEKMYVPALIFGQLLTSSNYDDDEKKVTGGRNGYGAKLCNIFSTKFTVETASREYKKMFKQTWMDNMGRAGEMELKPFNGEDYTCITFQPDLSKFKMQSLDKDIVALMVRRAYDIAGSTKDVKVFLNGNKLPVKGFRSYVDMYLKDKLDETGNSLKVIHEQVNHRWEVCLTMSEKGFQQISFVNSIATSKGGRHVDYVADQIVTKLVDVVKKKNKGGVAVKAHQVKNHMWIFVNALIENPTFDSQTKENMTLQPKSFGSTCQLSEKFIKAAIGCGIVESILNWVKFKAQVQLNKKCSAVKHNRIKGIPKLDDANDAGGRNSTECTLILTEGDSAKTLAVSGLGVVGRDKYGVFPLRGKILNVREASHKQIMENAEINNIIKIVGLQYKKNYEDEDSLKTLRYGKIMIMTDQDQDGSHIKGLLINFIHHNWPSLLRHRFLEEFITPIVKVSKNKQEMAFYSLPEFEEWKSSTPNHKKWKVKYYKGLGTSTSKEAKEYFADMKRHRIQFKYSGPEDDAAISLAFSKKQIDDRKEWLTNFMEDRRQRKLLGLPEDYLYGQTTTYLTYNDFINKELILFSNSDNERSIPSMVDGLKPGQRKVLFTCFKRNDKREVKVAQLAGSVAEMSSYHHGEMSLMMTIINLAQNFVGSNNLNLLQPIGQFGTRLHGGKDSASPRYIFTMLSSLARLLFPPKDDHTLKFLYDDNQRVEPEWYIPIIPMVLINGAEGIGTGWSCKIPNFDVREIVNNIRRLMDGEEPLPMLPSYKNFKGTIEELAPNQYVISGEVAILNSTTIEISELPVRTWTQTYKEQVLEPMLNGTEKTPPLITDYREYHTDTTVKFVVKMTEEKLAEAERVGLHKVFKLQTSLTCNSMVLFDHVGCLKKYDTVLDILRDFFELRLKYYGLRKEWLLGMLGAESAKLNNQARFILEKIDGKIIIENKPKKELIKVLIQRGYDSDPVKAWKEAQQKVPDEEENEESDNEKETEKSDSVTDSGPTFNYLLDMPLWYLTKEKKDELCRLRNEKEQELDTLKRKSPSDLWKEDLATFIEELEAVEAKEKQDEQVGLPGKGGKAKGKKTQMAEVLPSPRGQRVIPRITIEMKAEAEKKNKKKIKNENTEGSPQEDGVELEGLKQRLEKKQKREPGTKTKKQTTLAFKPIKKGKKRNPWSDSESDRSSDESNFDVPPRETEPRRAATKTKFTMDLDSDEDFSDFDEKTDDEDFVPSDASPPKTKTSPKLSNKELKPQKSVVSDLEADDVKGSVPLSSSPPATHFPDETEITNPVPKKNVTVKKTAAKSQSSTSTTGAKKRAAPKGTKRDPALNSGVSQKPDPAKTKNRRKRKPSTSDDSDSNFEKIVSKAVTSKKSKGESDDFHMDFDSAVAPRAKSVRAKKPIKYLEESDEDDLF
From the text: The inhibition of human topoisomerase II (hereafter topo II) was quantitated by a procedure adapted from that described by Trask et al., EMBO J., 3, 671-676 (1984). The assay quantitates the amount of topo II covalently attached to DNA at equilibrium during a topo II reaction. This assay determines the potential of a compound to stabilize this complex, which potential is closely related to the cytotoxicity of the compound.
Topo II was purified from late log phase suspension cultures of HeLa WIS by an adaptation of the method described by Per et al., Mol. Pharmacol., 32, 17-25 (1987).
Assays (in duplicate) were assembled at 4° C. Assay mix (25 μl) was distributed in Beckman (No. 265270) 1.5 mL microtiter tubes followed by the addition of 5 μl test compound to yield the final concentrations of assay components:
The assay mix including the test compound was incubated for 20 minutes at 37° C. The reaction was terminated at 37° C. by the addition of 3 μl 10% SDS followed by the addition of 266 μl 10 mM Tris-Cl pH 7.5, 20 μg/ml BSA, 20 μg/ml calf thymus DNA, 1% SDS.
A SDS/protein precipitate was formed by the addition of 28 μl 2.5M KCl followed by chilling on ice for a minimum of 10 minutes. The precipitate was collected and washed with a Brandell cell harvester on a GFB glass fiber filter membrane as follows. The contents of the assay tube were drawn up into the harvester. The tube was then rinsed 7× with 10 mM Tris-Cl pH 7.5, 1 mM EDTA and 100 mM KCl. The precipitate was washed with 1 L of a solution of 10 mM Tris-Cl pH 7.5, 1 mMEDTA, 100 mM KCl followed by 1 L of 95% ethyl alcohol and finally 0.5 L 70% of ethyl alcohol (per 48 samples in each case). After drying, CPM was determined by liquid scintillation counting with 5 ml Biofluor (NEN Research Products) or Readisafe (Beckman Instruments Inc.) cocktail.
Preparation of test compound--A stock solution (6 mg/ml) of test compound was prepared either in 0.1N sodium hydroxide or 0.2N hydrogen chloride. This solution then was diluted 1/5 into water and serially thereafter in either 0.02N sodium hydroxide or 0.04N hydrogen chloride, respectively. The stock solution and serial dilution of the test compound was stored at -20° C. prior to testing.
Screening of test compound--As an initial screen, the test compound was tested at a final concentration of 2, 20 and 200 μg/ml. The compound was then retested at a range of concentrations (usually 2-3×steps) bridging their approximate EC50 's, as estimated by the prescreen.
Controls--A solvent control which indicates the base level of topo II-DNA complex formed in the absence of the test compound was included in each test. A control, in which topo II was omitted, was included for each test compound at the highest drug concentration tested.
Reference Agent--A dose response curve with mAMSA at 0.01, 0.08, 0.16, 0.32, 1.0 and 10 μg/ml was included in each test.
The maximal DNA-topo II complex formed is taken as that equal to that formed at the nearly saturating dose of mAMSA (10 μg/ml).

[2] = system: P388 murine leukemia cells; experiment: In vitro cytotoxicity, continuous (48-hour) exposure of P388 cells; format: cell-based; conditions: Mus musculus; P388, continuous exposure (48-hour); read-out: in vitro cytotoxicity IC50, cont. exp.
Procedure: (§1) In vitro cytotoxicity was assayed by determining cell survival following exposure of P388 murine leukemia cells to a range of test compound concentrations. Cytotoxicity was quantitated following either a one-hour exposure or continuous exposure of P388 cells to test compound.
(§2) A Manual of Basic Technique. […] Briefly, following drug exposure cells were plated in soft agar and incubated (37°, 5% CO2) for 7-10 days during which time viable cells form visible colonies. Cytotoxicity following continuous exposure of cells to test compound was assayed by quantitating total P388 cells on a Coultier Counter following a 48-hour co-incubation of test compound with cells. P388 cells were maintained in log phase throughout the duration of cytotoxicity assays.
(§3) The percentage of cells surviving relative to an untreated control was graphed as a function of increasing drug concentration.

[3] = In vivo antitumor assay, Panc03(sc); parameters: species or system mice; conditions: mouse, in vivo, MTD
From the text: Mice: Inbred: C3H/He and NCR-nu; and Hybrids: B6D2F1 (C57BL/6 females×DBA/2 males, CD2F1 (Balb/c females×DBS/2 males) and B6C3fl (C57BL/6×C3H) were bred at Wayne State University from strains obtained from the Frederick Cancer Research Facility, Frederick, Maryland or purchased from commercial suppliers.
Tumors: Murine Tumor: P388 and an adriamycin-resistant (ADR) subline P388/ADR leukemia and the following transplantable solid tumors of mice were used for in vivo testing: B16 melanoma (B16), pancreatic ductal adenocarcinoma No. 03 (Pane 03), colon adenocarcinoma No. 38 (colo 38), lung carcinoma No. 12 (LC 12), mammary ductal adenocarcinoma No. 16/C (Mam16C) and an adriamycin-resistant subline Mam16C/ADR. Human tumor: A single human tumor, mammary carcinoma MX-1 was used for in vivo testing. All tumors are in the Developmental Therapeutics Program frozen tumor respository, maintained by the Biological Testing Branch, Frederick Maryland. Each has a detailed description, code identification number, and list of references at the National Tumor Repository. Murine tumors were maintained in the mouse strain of origin and were transplanted in the appropriate F1 hydrid (or the strain of origin) for therapy trials. Human mammary carcinoma MX-1 (MX1) was maintained as a subcutaneous implant in either athymic Swiss (Cr: NIH(S)-nu) or athymic random bred (NCR-nu) mice and transplanted in NCR-nu for therapy trials.
Chemotherapy: For pancreatic ductal adenocarcinoma No. 3, colon adenocarcinoma No. 38 (colo 38), lung carcinoma No. 12 LC 12) and both adriamycin-sensitive (RP) and-resistant (ADR) mammary ductal adenocarcinoma No. 16 (Mam16) tumors, bilateral tumor implants were used to help ensure a more uniform tumor burden per mouse (thus reducing the requirement for greater numbers of mice per group). The animals necessary to begin an experiment were pooled, implanted bilaterally s.c. on day zero with 30-60 mg tumor fragments using a 12-gauge trocar, and again pooled before randomization to the various treatment and control groups. Chemotherapy was started within three days after tumor implantation while the number of cells per mouse was relatively small (1×10^7 -1×10^8 cells).
Quantitative end points used to assess antitumor activity included % Increased Life Span (% ILS), Tumor Cell Kill (Log10 kill), and Tumor Growth Inhibition (T/C). Long Term Survivors (45 or 60 day) were excluded from calculations of %ILS and Tumor Cell Kill.
The log10 cell kill was calculated from the following formula: [formula] where T-C is the tumor difference in the median day of death between the treated (T) and the control (C) groups and Td is the tumor doubling time (in days), the latter estimated from the best fit straight line from a log-linear growth plot of the control-group tumors in exponential growth. The conversion of the T-C values to log10 cell kill is possible because the Td for tumors regrowing post-treatment approximated the Td values of the tumors in untreated control mice.
Tumors were measured with a caliper once or twice weekly (as needed) until either tumors exceeded 1600 mg or cure was assured. Tumor weights were estimated from two-dimensional measurements: Tumor Weight (mg)=(a×b^2) / 2, where a and b are the tumor length and width (ram) respectively. Measurements were carried out simultaneously in both treatment and control groups. When the control group tumors reached approximately 750-1500 mg in size (median of group), the median tumor weight of each group was determined (including zeros). The T/C value in percent is an indication of antitumor effectiveness. The % T/C was calculated from the following formula for solid murine tumor models: [formula] where T and C are median tumor weights of the treatment and control groups, respectively. A T/C equal to or less than 42% is considered significant antitumor activity. […]

[4] = system: P388 murine leukemia cells; experiment: In vitro cytotoxicity, one-hour exposure, clonogenic survival of P388 cells; format: cell-based; conditions: Mus musculus, read-out: in vitro cytotoxicity IC50, 1 hr exp.; P388, 1 hr exposure
Procedure: as §1, §2, §3

[5] = conc. achieving 50% of maximal effect of mAMSA, topo II from HeLa cells

| SMILES | EC50 [1, 5] [nM] | IC50 [2] [nM] | MTD ([3]; sc) [mg/kg] | IC50 [4] [nM] | MTD [3] [mg/kg] | EC50 [1] [nM] | EC50 ([1]; footnote c: bell-shaped dose response curve noted, 50% of maximal effect of mAMSA) [nM] | MTD ([3]; iv) [mg/kg] |
| --- | --- | --- | --- | --- | --- | --- | --- | --- |
| Cc1cc(-c2c(F)cc3c4nn(-c5ccccc5)c(=O)c-4cn(C4CC4)c3c2F)cc(C)n1 [Example 22] | 2700 | 840 | 635 |  |  |  |  |  |
| Cc1cc(-c2c(F)cc3c4nn([C@H]5CC[C@H](N)CC5)c(=O)c-4cn(C4CC4)c3c2F)cc(C)n1 [Example 56b, 2-(trans-4-aminocyclohexyl)-5-cyclopropyl-6,8-difluoro-2,5 dihydro-7-(2,6-dimethyl-4-pyridinyl)-3H-pyrazolo[4,3-c]quinolin-3-one] | 4200 |  |  | 1500 | 550 |  |  |  |
| Cc1cc(-c2c(F)cc3c4n[nH]c(=O)c-4cn(C4CC4)c3c2F)cc(C)n1 [Example 6] | 11000 | 3600 | > 2500 | 7900 |  |  |  |  |
| Cc1cc(-c2c(F)cc3c4nn(CCNC(C)(CO)CO)c(=O)c-4cn(C4CC4)c3c2F)cc(C)n1 [Example 55] | 11000 | 25000 |  | 11000 |  |  |  |  |
| Cc1cc(-c2c(F)cc3c4nn(CCN5CCCC5)c(=O)c-4cn(C4CC4)c3c2F)cc(C)n1 [Example 18] |  | 35 |  | 300 |  | 650000 |  |  |
| Cc1cc(-c2c(F)cc3c4nn(CCN5CCOCC5)c(=O)c-4cn(C4CC4)c3c2F)cc(C)n1 [Example 20] | 48000 | 410 |  | 2800 |  |  |  |  |
| Cc1cc(-c2c(F)cc3c4nn(C5CCCCC5)c(=O)c-4cn(C4CC4)c3c2F)cc(C)n1 [Example 40] | 900 | 190 |  | 680 |  |  |  |  |
| Cc1cc(-c2c(F)cc3c4nn(C5CCNCC5)c(=O)c-4cn(C4CC4)c3c2F)cc(C)n1 [Example 49] | 5600 | 2500 |  | 2300 |  |  |  |  |
| Cc1cc(-c2c(F)cc3c4nn(C5CCOCC5)c(=O)c-4cn(C4CC4)c3c2F)cc(C)n1 [Example 46] | 1700 | 250 |  | 290 |  |  |  |  |
| Cc1cc(-c2c(F)cc3c4nn(C5CCCC5)c(=O)c-4cn(C4CC4)c3c2F)cc(C)n1 [Example 41] | 4000 | 380 |  | 1100 |  |  |  |  |
| Cc1cc(-c2c(F)cc3c4nn(CC5CCCCC5)c(=O)c-4cn(C4CC4)c3c2F)cc(C)n1 [Example 43] | 8200 | 4900 |  | 6700 |  |  |  |  |
| COc1ccc(-n2nc3c4cc(F)c(-c5cc(C)nc(C)c5)c(F)c4n(C4CC4)cc-3c2=O)cc1 [Example 23] |  | 5200 | 1150 |  |  |  | 6800 | 140 |
| Cc1cc(-c2c(F)cc3c4nn(C5CCN(C)CC5)c(=O)c-4cn(C4CC4)c3c2F)cc(C)n1 [Example 50] | 3200 |  |  | 94 |  |  |  | 128 |
| CCN(CC)CCCn1nc2c3cc(F)c(-c4cc(C)nc(C)c4)c(F)c3n(C3CC3)cc-2c1=O [Example 16] | 6000 | 1200 |  | 490 |  |  |  |  |
| Cc1cc(-c2c(F)cc3c4nn([C@H]5CC[C@@H](NC=O)CC5)c(=O)c-4cn(C4CC4)c3c2F)cc(C)n1 [Example 57, 2-(cis-4-formamidocyclohexyl)-5-cyclopropyl-6,8-difluoro-2,5-dihydro-7-(2,6-dimethyl-4-pyridinyl)-3H-pyrazolo[4,3-c]quinolin-3-one] | 800 |  |  | 5100 |  |  |  |  |
| Cc1cc(-c2c(F)cc3c4nn(CCCCN(C)C)c(=O)c-4cn(C4CC4)c3c2F)cc(C)n1 [Example 54, 5-Cyclopropyl-6,8-difluoro-2,5-dihydro-2-[4-(dimethylamino)-butyl]-7-(2,6-dimethyl-4-pyridinyl) -3H-pyrazolo[4,3-c]quinolin-3-one] | 15000 | 500 |  | 400 |  |  |  |  |
| Cc1cc(-c2c(F)cc3c4nn(C5CCCCCC5)c(=O)c-4cn(C4CC4)c3c2F)cc(C)n1 [Example 42] | 2900 | 1500 |  | 4200 |  |  |  |  |
| Cc1cc(-c2c(F)cc3c4nn(CCC5CCCN5C)c(=O)c-4cn(C4CC4)c3c2F)cc(C)n1 (centres unmarked) [Example 21] | 3500 | 160 |  | 330 |  |  |  | 80 |
